Measured values as given in US20070105810A1, “THERAPEUTICS” (priority 2003, published 2007).
“And” between values parts separate entries of the source, which are not always exact repeats. Equal values may be shown once. “Also recorded” adds a separate entry of the source.

Experiments:
[1] = test system: IP3-induced Ca2+ signal in Jurkat T cells; test: Ca2+ signalling evoked by microinjection of IP3 in Jurkat T cells; type: cell-based, human; conditions: co-injection of BZ52 1 mM with IP3 4 μM
Method: NAADP (final concentration 100 nM), IP3 (final concentration 4 μM), and BZ52 (final concentration 1 mM) were injected into single Jurkat T cells while [Ca^2+]i was analyzed by Ca^2+ imaging. Data are presented as mean±SEM (n=4 to 13).
The Jurkat T cells were loaded with fura-2/AM and kept in the dark at room temperature until use. Glass coverslips were coated first with BSA (5 mg/ml) and subsequently with poly-L-lysine (0.1 mg/ml). Small chamber slides consisting of a rubber O-ring were sealed on thin (0.1 mm) glass coverslips by silicon grease. Then, 60 μl buffer A containing 140 mM NaCl, 5 mM KCl, 1 mM MgSO4, 1 mM CaCl2, 1 mM NaH2PO4, 5.5 mM glucose, and 20 mM HEPES (pH 7.4), and 40 μl cell suspension (2*10^6 cells/ml) suspended in the same buffer were added into the small chamber and the coverslip was mounted on the stage of a fluorescence microscope (Leica DM IRE2).
Ratiometric Ca^2+ imaging was performed as described earlier. In brief, we used an Improvision imaging system (Heidelberg, Germany) built around the Leica microscope at 100-fold magnification. Illumination at 340 and 380 nm was carried out using a monochromator system (Polychromator IV, TILL Photonics, Graefelfing, Germany). Images were taken with a gray-scale CCD camera (type C4742-95-12ER; Hamamatsu, Enfield, United Kingdom; operated in 8-bit mode). […]

[2] = test system: transfer experimental autoimmune encephalomyelitis (EAE) in Lewis rats; test: Transfer experimental autoimmune encephalomyelitis (EAE); type: in vivo, Lewis rat
Excerpt: Transfer of MBP-specific CD4-positive T cells was used at day 0 to induce experimental autoimmune encephalomyelitis (EAE) in Lewis rats. Animals injected with PBS (vehicle) or nicotinic acid (control compound with structural similarities to BZ52) developed severe paralysis of tail and rear legs due to the inflammation. Clinical symptoms started day 3.5 and reached their maxima day 4 to 6 (or 6.5). Between day 3.5 and day 6, no difference between PBS and nicotinic acid was observed, whereas a beneficial effect of BZ52 was visible (FIG. 14).
Animals (6 per group, body weight approx. 150 g) were injected i.p. twice per day with either PBS (vehicle control), nicotinic acid (50 μmol/100 g body weight), or BZ 52 (50 μmol/100 g body weight). Clinical scores indicate the degree of paralysis of tail and legs. Data are presented as mean±SD from one representative experiment (n=6).
Animals (6 per group, body weight approx. 150 g) were injected i.p. twice per day with either PBS (vehicle control), nicotinic acid (50 μmol/100 g body weight), or BZ 52 (50 μmol/100 g body weight). […] Data are presented as mean±SD from one representative experiment (n=6).
5×10^6 activated MBP specific-GFP Tcells were transferred i.v. into recipient Lewis rats. Clinical EAE was graded in five scores: 0.5, loss of tail tonus; 1, tail paralysis; 2, gait disturbance; 3, hind limb paralysis; 4, tetraparesis; 5, death.
Animals' weight was measured twice a day.
In order to analyze the effect of BZ194 on encephalitogenic T cells during the effector phase of EAE we used retrovirally transduced MBP-specific T cells expressing the marker gene green fluorescent protein (TMBP-GFP cells).
Animals were treated for 5 d intraperitoneally with 500 μmol BZ194 or vehicle (DMSO).

[3] = test system: rat MBP-specific T cells; test: Cytokine (IL2 mRNA) expression of in vitro-cultured MBP-specific T cells, quantitative PCR; type: cell-based; conditions: IL2 quantitative PCR after 48 h
Method: Cells were stimulated in presence of MBP-pulsed irradiated APCs and increasing concentrations of BZ194. After 48 h cells were collected for cytofluorometric cell count A and RNA extraction was performed for quantitative PCR analysis (IL2) B. Effect of BZ194 on pre-activated T cell blasts C. Amplification of MBP-specific T cells which had been incubated before in the presence of DMSO or 0.5 mM or 1 mM BZ194 D.
(§1) mRNA was extracted using standard protocols (Sigma-Aldrich) and reversed to cDNA (Invitrogen). Taqman analysis was performed as reported (Flügel et al. 2001, Immunity) using ABI Prim 7700 Sequence Detector “Taqman” (PE Applied Biosystems). The expression of a housekeeping gene (b-actin) was set into relation to the specific mRNA. Data were obtained by independent duplicate measurements.
BZ194 strongly influenced the function of rat MBP-specific T cells in vitro and in vivo. Proliferation and cytokine expression of the T cells was tested in vitro after incubation with irradiated MBP-pulsed thymic antigen presenting cells (in rats the commonly used APC type, ref. 5). […] Additionally, the expression of cytokine production by the T cells was reduced (FIG. 18B). Importantly, these effects were not due to toxicity of BZ194.

[4] = Solubility; type: physicochemical; conditions: excluded intravenous application
[5] = test system: cytokine production (IL-2, IFNγ, TNFα, IL-2 receptor mRNA); test: Quantitative PCR of cytokine mRNA in spinal cord and spleen of EAE animals; type: in vivo, rat; conditions: spinal cord tissue 4 days after T cell transfer; BZ194 5 d, 500 μmol; relative to β actin and CD3
Method: Quantitative PCR of spinal cords and spleens 4 days after T cell transfer of animals treated with vehicle (DMSO) of BZ 194 (5 d, 500 μmol). IFNg A,B and IL-2 C,D mRNAs were measured in relation to housekeeping gene β actin A,C or T cell marker CD3 B,D.
as §1

[6] = 500 μmol BZ194 i.p. for 5 d, mean±SD, Experiments I-III

Row | SMILES | IP3-induced Ca2+ signal [1] | decrease in body weight ([2]; 50 μmol/100 g body weight i.p. twice per day) | clinical symptoms (clinical score) vs PBS ([2]; 50 μmol/100 g body weight i.p. twice per day, day 3.5 to day 6) | cytokine (mRNA) production in vitro [3] | Max. body weight loss (%) [2, 6] | Max. clinical score [2, 6] | clinical EAE (clinical score) ([2]; intraperitoneal BZ194, EAE by i.v. transfer of 5×10^6 TMBP-GFP cells) | solubility [4] | cytokine (mRNA) production ex vivo [5]
1 | CCCCN(CCCC)C(=O)C[n+]1cccc(C(=O)O)c1 [BZ52, 3-Carboxy-1-dibutylcarbamoylmethyl-pyridinium] | no difference | less pronounced decrease | a less rapid increase of symptoms, a decreased maximum score and a more rapid decline of clinical symptoms |  |  |  |  |  | 
2 | CCCCCCCCNC(=O)C[n+]1cccc(C(=O)O)c1.[Br-] [BZ194, 3-Carboxy-1-Octylcarbamoylmethyl-Pyridinium] |  |  |  | suppressed; also recorded: reduced | 8 ± 1.6% and 10 ± 4.4% and 9 ± 4.3% | 1.6 ± 0.5 and 1.4 ± 0.8 | suppressed; also recorded: significantly ameliorated | Limited | suppressed; also recorded: significant reduction
